In the NIST ThermoML archive (doi:10.1016/j.jct.2013.06.022):
Several values for one entry are separate records, joined by “and”; a condition that tells them apart may be missing. Equal values may be shown once. Numbers after ± are expanded uncertainties.

Columns and labels:
[1] = Crystal; for vapor or sublimation pressure: Calculated from knudsen effusion weight loss; for Normal melting temperature: DTA
[2] = Molar enthalpy of transition or fusion; details: Crystal; DSC

COc1ccccc1C(N)=O [2-methoxybenzamide]
[1]
Details | vapor or sublimation pressure
335.12 K | 0.0001 ± 5e-06 kPa and 0.000101 ± 5e-06 kPa
337.18 K | 0.000126 ± 6e-06 kPa and 0.000124 ± 6e-06 kPa
339.16 K | 0.000155 ± 8e-06 kPa and 0.000153 ± 8e-06 kPa
341.12 K | 0.000198 ± 1e-05 kPa and 0.000195 ± 1e-05 kPa
343.16 K | 0.000248 ± 1.2e-05 kPa and 0.000241 ± 1.2e-05 kPa and 0.000249 ± 1.2e-05 kPa
345.16 K | 0.000305 ± 1.5e-05 kPa and 0.0003 ± 1.5e-05 kPa and 0.000309 ± 1.5e-05 kPa
347.11 K | 0.000389 ± 1.9e-05 kPa and 0.000382 ± 1.9e-05 kPa and 0.000385 ± 1.9e-05 kPa
349.15 K | 0.000486 ± 2.4e-05 kPa and 0.000474 ± 2.4e-05 kPa and 0.000483 ± 2.4e-05 kPa
351.16 K | 0.000594 ± 3e-05 kPa and 0.000581 ± 2.9e-05 kPa
353.12 K | 0.00075 ± 3.8e-05 kPa and 0.000738 ± 3.7e-05 kPa and 0.000736 ± 3.7e-05 kPa
355.17 K | 0.000924 ± 4.6e-05 kPa and 0.000926 ± 4.6e-05 kPa and 0.00091 ± 4.6e-05 kPa
357.16 K | 0.001122 ± 0.00012 kPa and 0.001121 ± 0.00012 kPa and 0.001106 ± 0.00011 kPa

Details | Molar enthalpy of transition or fusion [kcal/mol] | Normal melting temperature [°C]
[1] | – | 128.51 ± 0.42
[2] | 6.5 ± 0.153 | –

COc1cccc(C(N)=O)c1 [3-methoxybenzamide]
[1]
Details | vapor or sublimation pressure
345.11 K | 7.2e-05 ± 4e-06 kPa and 7.1e-05 ± 4e-06 kPa
347.12 K | 9.2e-05 ± 5e-06 kPa and 8.8e-05 ± 4e-06 kPa
349.16 K | 0.000112 ± 6e-06 kPa and 0.000117 ± 6e-06 kPa
351.12 K | 0.000143 ± 7e-06 kPa and 0.000142 ± 7e-06 kPa
353.16 K | 0.00018 ± 9e-06 kPa and 0.000175 ± 9e-06 kPa and 0.000178 ± 9e-06 kPa
355.16 K | 0.000219 ± 1.1e-05 kPa and 0.000225 ± 1.1e-05 kPa
357.12 K | 0.000283 ± 1.4e-05 kPa and 0.000287 ± 1.4e-05 kPa and 0.000286 ± 1.4e-05 kPa
359.16 K | 0.000357 ± 1.8e-05 kPa and 0.000346 ± 1.7e-05 kPa
361.14 K | 0.000432 ± 2.2e-05 kPa and 0.000428 ± 2.1e-05 kPa and 0.000443 ± 2.2e-05 kPa
363.13 K | 0.00055 ± 2.8e-05 kPa and 0.000547 ± 2.7e-05 kPa and 0.000546 ± 2.7e-05 kPa
365.17 K | 0.00068 ± 3.4e-05 kPa and 0.000682 ± 3.4e-05 kPa and 0.000658 ± 3.3e-05 kPa
367.13 K | 0.000844 ± 4.2e-05 kPa and 0.000848 ± 4.2e-05 kPa and 0.000842 ± 4.2e-05 kPa
369.17 K | 0.001047 ± 0.00011 kPa and 0.001014 ± 0.0001 kPa
371.15 K | 0.001291 ± 0.00014 kPa and 0.001251 ± 0.00013 kPa and 0.00125 ± 0.00013 kPa

Details | Molar enthalpy of transition or fusion [kcal/mol] | Normal melting temperature [°C]
[1] | – | 134.00 ± 0.41
[2] | 6.84 ± 0.153 | –

COc1ccc(C(N)=O)cc1 [4-methoxybenzamide]
[1]
Details | vapor or sublimation pressure
357.12 K | 0.000103 ± 5e-06 kPa
359.19 K | 0.000128 ± 6e-06 kPa and 0.000124 ± 6e-06 kPa
361.16 K | 0.000156 ± 8e-06 kPa and 0.000154 ± 8e-06 kPa
363.12 K | 0.000195 ± 1e-05 kPa and 0.000193 ± 1e-05 kPa
365.2 K | 0.000242 ± 1.2e-05 kPa and 0.000238 ± 1.2e-05 kPa
367.16 K | 0.000292 ± 1.5e-05 kPa and 0.00029 ± 1.5e-05 kPa and 0.000299 ± 1.5e-05 kPa
369.12 K | 0.000366 ± 1.8e-05 kPa and 0.000368 ± 1.8e-05 kPa and 0.000367 ± 1.8e-05 kPa
371.18 K | 0.000455 ± 2.3e-05 kPa and 0.000442 ± 2.2e-05 kPa and 0.000452 ± 2.3e-05 kPa
373.15 K | 0.000548 ± 2.7e-05 kPa and 0.000535 ± 2.7e-05 kPa and 0.000556 ± 2.8e-05 kPa
375.11 K | 0.000689 ± 3.4e-05 kPa and 0.000681 ± 3.4e-05 kPa and 0.000685 ± 3.4e-05 kPa
377.18 K | 0.000833 ± 4.2e-05 kPa and 0.000838 ± 4.2e-05 kPa and 0.000812 ± 4.1e-05 kPa
379.15 K | 0.001012 ± 0.0001 kPa and 0.000985 ± 4.9e-05 kPa and 0.000979 ± 4.9e-05 kPa

Details | Molar enthalpy of transition or fusion [kcal/mol] | Normal melting temperature [°C]
[1] | – | 167.49 ± 0.4
[2] | 6.94 ± 0.16 | –
